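Cultured in 96-well plates, cells were exposed to test compound for 48 hours across five concentrations. GI50: concentration for 50% inhibition of growth.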 Calls of active or inactive are those of the source. No stated cut-off is given here; in the data, active = GI50 up to about 1.1 µM and inactive = higher.
Tests used:
Assay in all cases: DTP human tumour cell line panel, 48 h
HCT-15 = system: HCT-15
SK-OV-3 = system: SK-OV-3
HL-60 = system: HL-60
A498 = system: A498
SF-539 = system: SF-539
SNB-75 = system: SNB-75
OVCAR-5 = system: OVCAR-5
LOX IMVI = system: LOX IMVI
786-0 = system: 786-0
ACHN = system: ACHN
UO-31 = system: UO-31
UACC-257 = system: UACC-257
RXF 393 = system: RXF 393
UACC-62 = system: UACC-62
U-251 = system: U-251
HCT-116 = system: HCT-116
SR = system: SR

Measured: GI50

CC1(c2ccc(F)cc2)C(C#N)C(=O)NC(=O)C1C#N (stereo not given)
> 100 µM: HCT-15
inactive: SK-OV-3 > 100 µM | HL-60 > 100 µM | A498 41.4 µM | SF-539 > 100 µM | SNB-75 32.3 µM | OVCAR-5 > 100 µM | LOX IMVI > 100 µM | 786-0 > 100 µM | ACHN > 100 µM | UO-31 83.8 µM | UACC-257 > 100 µM | RXF 393 60.1 µM | UACC-62 > 100 µM

CCC1N2CCCCC2[C@@H]2c3[nH]c4ccccc4c3CCN12 (stereo not given in full)
> 100 µM: HCT-15
inactive: SK-OV-3 > 100 µM | U-251 > 100 µM | HL-60 > 100 µM | A498 > 100 µM | SF-539 > 100 µM | SNB-75 77.8 µM | HCT-116 > 100 µM | OVCAR-5 > 100 µM | 786-0 > 100 µM | ACHN > 100 µM | UO-31 > 100 µM | UACC-257 > 100 µM | RXF 393 > 100 µM | UACC-62 > 100 µM

O=C1NCCCC12CCCNC2=O
> 100 µM: HCT-15
inactive: SK-OV-3 > 100 µM | U-251 > 100 µM | HL-60 > 100 µM | SF-539 > 100 µM | HCT-116 > 100 µM | LOX IMVI > 100 µM | 786-0 > 100 µM | ACHN > 100 µM | UO-31 > 100 µM | UACC-257 > 100 µM | RXF 393 > 100 µM | SR > 100 µM

CC(=O)OCc1nnn2c1C(OC(C)=O)CC2 (stereo not given)
> 100 µM: HCT-15
inactive: SK-OV-3 > 100 µM | U-251 > 100 µM | SF-539 > 100 µM | SNB-75 20.1 µM | HCT-116 > 100 µM | OVCAR-5 > 100 µM | 786-0 > 100 µM | ACHN > 100 µM | UO-31 > 100 µM | UACC-257 > 100 µM | RXF 393 > 100 µM | UACC-62 > 100 µM | SR > 100 µM

CCOC(=O)Nc1ccc(S(=O)(=O)OC)cc1.CCOC(=O)Nc1ccc(S(=O)(=O)OC)cc1.Cc1cn(C2CC(O)C(CO)O2)c(=O)[nH]c1=O
inactive: SK-OV-3 > 100 µM | HL-60 91.8 µM | A498 > 100 µM | SF-539 > 100 µM | SNB-75 > 100 µM | HCT-116 10 µM | OVCAR-5 > 100 µM | LOX IMVI 18.3 µM | 786-0 35.4 µM | ACHN > 100 µM | UO-31 > 100 µM | UACC-257 > 100 µM | UACC-62 > 100 µM
18.6 µM: HCT-15

CC(C)(C1=NC(C(C)(C)C)CO1)C1=N[C@@H](C(C)(C)C)CO1 (stereo not given in full)
> 100 µM: HCT-15
inactive: SK-OV-3 > 100 µM | U-251 > 100 µM | HL-60 > 100 µM | SF-539 > 100 µM | SNB-75 > 100 µM | HCT-116 > 100 µM | OVCAR-5 > 100 µM | LOX IMVI > 100 µM | 786-0 > 100 µM | ACHN > 100 µM | UO-31 > 100 µM | UACC-257 > 100 µM | RXF 393 > 100 µM | UACC-62 > 100 µM | SR > 100 µM

S=P1(Oc2ccccc2)NNP2(=NP(N3CC3)(N3CC3)=NP(N3CC3)(N3CC3)=N2)NN1 (stereo not given)
> 100 µM: HCT-15
inactive: SK-OV-3 > 100 µM | U-251 > 100 µM | HL-60 30.4 µM | A498 > 100 µM | SF-539 > 100 µM | SNB-75 64.4 µM | HCT-116 > 100 µM | OVCAR-5 > 100 µM | LOX IMVI > 100 µM | 786-0 > 100 µM | ACHN > 100 µM | UO-31 > 100 µM | UACC-257 > 100 µM | UACC-62 98.4 µM

O/N=C/c1ncccc1C1OCCO1
inactive: SK-OV-3 > 100 µM | U-251 > 100 µM | HL-60 > 100 µM | SF-539 > 100 µM | SNB-75 > 100 µM | HCT-116 > 100 µM | OVCAR-5 > 100 µM | LOX IMVI > 100 µM | 786-0 > 100 µM | ACHN > 100 µM | UO-31 > 100 µM | UACC-257 > 100 µM | RXF 393 > 100 µM | UACC-62 > 100 µM | SR > 100 µM
> 100 µM: HCT-15

CCOc1cccc2[s+]snc12
inactive: SK-OV-3 > 100 µM | U-251 33.8 µM | HL-60 30.2 µM | A498 > 100 µM | SF-539 46.8 µM | SNB-75 25.6 µM | HCT-116 > 100 µM | OVCAR-5 > 100 µM | LOX IMVI 50.1 µM | 786-0 > 100 µM | ACHN > 100 µM | UO-31 37.3 µM | UACC-257 > 100 µM | RXF 393 > 100 µM | UACC-62 40.3 µM
> 100 µM: HCT-15

CN(C)c1ccc(C=C2C(=O)OC(C)(C)OC2=O)cc1Br
inactive: SK-OV-3 > 100 µM | U-251 > 100 µM | HL-60 41.1 µM | SF-539 > 100 µM | SNB-75 29.5 µM | HCT-116 48.9 µM | OVCAR-5 > 100 µM | LOX IMVI > 100 µM | 786-0 > 100 µM | ACHN > 100 µM | UO-31 > 100 µM | UACC-257 > 100 µM | RXF 393 > 100 µM | UACC-62 > 100 µM | SR 59.6 µM

CC(=O)Nc1ccc(C(=O)N2N=C(C)/C(=C/c3cccc(O)c3)C2=O)cc1
> 100 µM: HCT-15
inactive: U-251 > 100 µM | SF-539 > 100 µM | SNB-75 > 100 µM | HCT-116 > 100 µM | OVCAR-5 > 100 µM | LOX IMVI > 100 µM | 786-0 > 100 µM | ACHN > 100 µM | UO-31 > 100 µM | UACC-257 > 100 µM

COC(=O)C1=CC2OC1(C)CCC2=O (stereo not given)
inactive: SK-OV-3 > 100 µM | U-251 > 100 µM | HL-60 26.9 µM | SF-539 > 100 µM | SNB-75 > 100 µM | HCT-116 85.3 µM | OVCAR-5 > 100 µM | LOX IMVI > 100 µM | 786-0 > 100 µM | ACHN > 100 µM | UO-31 > 100 µM | UACC-257 > 100 µM | RXF 393 > 100 µM | UACC-62 > 10 µM | SR 45.9 µM
67.9 µM: HCT-15

N/N=c1\c2ccccc2c2ccc3c4ccccc4/c(=N\N)c3c12
inactive: SK-OV-3 > 100 µM | U-251 > 100 µM | HL-60 > 100 µM | SF-539 > 100 µM | SNB-75 37.3 µM | HCT-116 > 100 µM | OVCAR-5 > 100 µM | 786-0 > 100 µM | ACHN > 100 µM | UO-31 > 100 µM | UACC-257 > 100 µM | RXF 393 > 100 µM | UACC-62 > 100 µM | SR 25.7 µM
> 100 µM: HCT-15

CN1C=C(C(N)=O)Cc2ccsc21
> 100 µM: HCT-15
inactive: SK-OV-3 > 100 µM | U-251 > 100 µM | HL-60 > 100 µM | SF-539 > 100 µM | SNB-75 > 100 µM | HCT-116 > 100 µM | OVCAR-5 > 100 µM | 786-0 > 100 µM | ACHN > 100 µM | UO-31 > 100 µM | UACC-257 > 100 µM | RXF 393 > 100 µM | UACC-62 > 100 µM | SR > 100 µM

From ChEMBL document CHEMBL1201862, “PubChem BioAssay data set” (2004)
